Results on six compounds are retold here after patent publication US10780090B2, “Heteroaryl compounds useful as inhibitors of SUMO activating enzyme” (Millennium Pharmaceuticals, Inc., priority 2014, dated 2020).

The assay has as its target recombinant human SAE enzyme (Homo sapiens (Human), UniProt Q9UBT2). The experiment in a line: SAE HTRF enzyme assay. The assay is classed as biochemical. The method in brief: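 HTRF read-out using Eu-cryptate anti-Flag and allophycocyanin anti-GST antibodies, added with EDTA stop buffer and read after 2 h at 24 °C. The preceding reaction ran 105 min at 24 °C: 0.11 nM recombinant SAE, 0.5 μM ATP, Sumo-Flag, Ubc9-GST, pH 7.5. Values given as single-concentration inhibition or IC50.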

recombinant human SAE enzyme, sequence (Q9UBT2 whole entry): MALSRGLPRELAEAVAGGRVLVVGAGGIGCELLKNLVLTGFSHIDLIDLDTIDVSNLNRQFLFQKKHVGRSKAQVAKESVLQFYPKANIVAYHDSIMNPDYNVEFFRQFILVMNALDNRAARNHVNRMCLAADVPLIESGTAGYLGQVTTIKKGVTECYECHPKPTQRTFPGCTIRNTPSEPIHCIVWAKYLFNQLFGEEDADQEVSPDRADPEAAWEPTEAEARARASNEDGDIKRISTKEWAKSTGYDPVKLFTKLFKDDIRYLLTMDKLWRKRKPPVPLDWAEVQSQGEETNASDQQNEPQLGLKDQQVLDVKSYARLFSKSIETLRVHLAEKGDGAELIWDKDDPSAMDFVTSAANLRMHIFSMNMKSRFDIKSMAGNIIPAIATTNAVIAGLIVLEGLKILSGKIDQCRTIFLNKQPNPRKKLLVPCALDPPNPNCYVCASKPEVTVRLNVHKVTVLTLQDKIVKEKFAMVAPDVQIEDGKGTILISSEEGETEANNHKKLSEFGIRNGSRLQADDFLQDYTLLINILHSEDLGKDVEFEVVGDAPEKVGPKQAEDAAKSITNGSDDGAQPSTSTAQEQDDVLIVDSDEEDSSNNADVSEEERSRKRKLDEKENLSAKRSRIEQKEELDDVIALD
recombinant human SAE enzyme, sequence (Q9UBE0 whole entry partner): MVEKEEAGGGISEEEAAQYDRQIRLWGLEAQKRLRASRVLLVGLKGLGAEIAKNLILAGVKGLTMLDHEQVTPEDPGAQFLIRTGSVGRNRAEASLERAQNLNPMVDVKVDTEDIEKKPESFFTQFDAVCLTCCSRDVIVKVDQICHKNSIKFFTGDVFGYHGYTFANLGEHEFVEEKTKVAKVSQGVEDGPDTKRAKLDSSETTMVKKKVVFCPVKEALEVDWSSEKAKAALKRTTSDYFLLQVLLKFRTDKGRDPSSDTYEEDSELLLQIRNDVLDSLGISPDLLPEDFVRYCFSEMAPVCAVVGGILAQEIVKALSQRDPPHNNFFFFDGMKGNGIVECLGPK

As to `CN(C)C(c1cccc(Cl)c1)c1csc(C(=O)c2cncnc2NC2CC(O)C(COS(N)(=O)=O)C2)c1` (mixture of isomers) [I-153, [(1R,2S,4R)-4-{[5-({4-[(R)-(3-Chlorophenyl)(dimethylamino)methyl]-2-thienyl}carbonyl)pyrimidin-4-yl]amino}-2-hydroxycyclopentyl]methyl sulfamate and [(1R,2S,4R)-4-{[5-({4-[(S)-(3-chlorophenyl)(dimethylamino)methyl]-2-thienyl}carbonyl)pyrimidin-4-yl]amino}-2-hydroxycyclopentyl]methyl sulfamate], where the note is “Concentration 0.111 μM”, the “Percent Inhibition” value was 86. For the same compound, the IC50 (as a rule, the midpoint of a concentration-inhibition curve) (class symbols A/B/C) was in the range of 10 to 100 nM.

For `NS(=O)(=O)OC[C@H]1C[C@@H](Nc2ncncc2C(=O)c2cc([C@@H]3OCCc4ccc(Br)cc43)cs2)C[C@@H]1O` (single isomer, unassigned) [I-268b, [(1R,2S,4R)-4-{[5-({4-[(1R)-7-bromo-3,4-dihydro-1H-isochromen-l-yl]-2-thienyl}carbonyl)pyrimidin-4-yl]amino}-2-hydroxycyclopentyl]methyl sulfamate or [(1R,2S,4R)-4-{([5-({4-[(1S)-7-bromo-3,4-dihydro-1H-isochromen-1-yl]-2-thienyl}carbonyl)pyrimidin-4-yl]amino}-2-hydroxycyclopentyl]methyl sulfamate], for the setting “Concentration 0.111 μM”, the “Percent Inhibition” value is on record as 102. Further, the IC50 (class symbols A/B/C) is under 10 nM.

Take `COc1ccccc1CCc1csc(C(=O)c2cncnc2N[C@@H]2C[C@H](COS(N)(=O)=O)[C@@H](O)C2)c1` [I-183, [(1R,2S,4R)-2-Hydroxy-4-{[5-({4-[2-(2-methoxyphenyl)ethyl]-2-thienyl}carbonyl)pyrimidin-4-yl]amino}cyclopentyl]methyl sulfamate]: under “Concentration 0.111 μM, read-out: Percent Inhibition”, the inhibition (in general, how much of the control response was suppressed) at 0.111 µM worked out at 82%. The IC50 (class symbols A/B/C) lay in the range of 10 to 100 nM.

As for `Cc1sc(C(=O)c2cncnc2N[C@@H]2C[C@H](COS(N)(=O)=O)[C@@H](O)C2)cc1[C@@H]1OCCc2ccc(CN(C)C)cc21` (mixture of isomers) [I-329, [(1R,2S,4R)-4-({5-[(4-{(1R)-7-[(dimethylamino)methyl]-3,4-dihydro-1H-isochromen-1-yl}-5-methyl-2-thienyl)carbonyl]pyrimidin-4-yl}amino)-2-hydroxycyclopentyl]methyl sulfamate and [(1R,2S,4R)-4-({5-[(4-{(1S)-7-[(dimethylamino)methyl]-3,4-dihydro-1H-isochromen-1-yl}-5-methyl-2-thienyl)carbonyl]pyrimidin-4-yl}amino)-2-hydroxycyclopentyl]methyl sulfamate], for the setting “SAE inhibition at compound concentration 0.111 μM”, the “Percent Inhibition” value is listed as 36%. Besides, for the setting “SAE inhibition, class symbols, legend in nM”, the IC50 was 100 to 1000 nM.

As to `NS(=O)(=O)OC[C@H]1C[C@@H](Nc2ncncc2C(=O)c2cc([C@@H]3NCCc4ccc(Br)cc43)c(Cl)s2)[C@H](O)[C@@H]1O` (single isomer, unassigned) [I-259a, [(1R,2R,3S,4R)-4-{[5-({4-[(1R)-7-bromo-1,2,3,4-tetrahydroisoquinolin-1-yl]-5-chloro-2-thienyl}carbonyl)pyrimidin-4-yl]amino}-2,3-dihydroxycyclopentyl]methyl sulfamate or [(1R,2R,3S,4R)-4-{[5-({4-[(1S)-7-bromo-1,2,3,4-tetrahydroisoquinolin-1-yl]-5-chloro-2-thienyl}carbonyl)pyrimidin-4-yl]amino}-2,3-dihydroxycyclopentyl]methyl sulfamate], for the setting “Concentration 0.111 μM”, the “Percent Inhibition” value is listed as 100. For the same compound, for the setting “class symbols A/B/C”, the IC50 is under 10 nM.

As to `CN[C@H](c1cccc(Cl)c1)c1csc(C(=O)c2cncnc2N[C@@H]2C[C@H](COS(N)(=O)=O)[C@@H](O)C2)c1` (single isomer, unassigned) [I-47a, [(1R,2S,4R)-4-{[5-({4-[(R)-(3-chlorophenyl)(methylamino)methyl]-2-thienyl}carbonyl)pyrimidin-4-yl]amino}-2-hydroxycyclopentyl]methyl sulfamate or [(1R,2S,4R)-4-{[5-({4-[(S)-(3-chlorophenyl)(methylamino)methyl]-2-thienyl}carbonyl)pyrimidin-4-yl]amino}-2-hydroxycyclopentyl]methyl sulfamate], the “Percent Inhibition” value (Concentration 0.111 μM) amounted to 99. Moreover, for the setting “class symbols A/B/C”, the half-inhibitory concentration (IC50) was under 10 nM.
